Key:
[1] = target: KIT (DKIN) (Homo sapiens, UniProt P10721); test: Binding constant (Kd) measurement, phage-displayed kinase competition binding assay, KIT (DKIN); conditions: c-Kit, DKIN construct
Source text: (§1) The term “ND” represents non-determined values.

[2] = target: KIT (JMminus) (Homo sapiens, UniProt P10721); test: Binding constant (Kd) measurement, phage-displayed kinase competition binding assay, KIT (JMminus); conditions: c-Kit, JMminus construct
Source text: as §1

Sequence of KIT (DKIN) (P10721 589-937 limits assumed): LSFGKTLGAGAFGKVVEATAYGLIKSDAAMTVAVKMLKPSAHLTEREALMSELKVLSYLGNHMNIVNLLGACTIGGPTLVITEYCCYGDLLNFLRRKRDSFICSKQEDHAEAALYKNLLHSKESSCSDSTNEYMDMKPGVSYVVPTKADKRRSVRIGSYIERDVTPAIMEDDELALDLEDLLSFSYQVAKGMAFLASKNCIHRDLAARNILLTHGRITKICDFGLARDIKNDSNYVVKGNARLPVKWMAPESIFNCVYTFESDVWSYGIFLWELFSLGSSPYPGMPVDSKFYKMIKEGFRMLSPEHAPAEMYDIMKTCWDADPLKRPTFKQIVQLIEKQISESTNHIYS
Sequence of KIT (JMminus) (P10721 589-937 limits assumed): as above

SMILES	Kd [1] [nM]	Kd [2] [nM]
COc1ccc(CC(=O)Nc2cc(C(C)(C)C)no2)cc1	100 to 1000	–
CC(C)(C)c1cc(NC(=O)Cc2ccc(OCc3ccccc3)cc2)on1	100 to 1000	–
COc1cccc2cc([C@H](C)C(=O)Nc3cc(C(C)(C)C)on3)ccc12	1000 to 10000	–
CC(C)(C)c1cc(NC(=O)Cc2ccc(F)cc2)on1	1000 to 10000	–
CC(C)(C)c1cc(NC(=O)Cc2ccc(Cl)cc2)on1	1000 to 10000	–
CC(C)(C)c1cc(NC(=O)Cc2ccc(Br)cc2)on1	100 to 1000	–
Cc1nn(C)c(Cl)c1C(=O)Nc1ccc(CC(=O)Nc2cc(C(C)(C)C)on2)cc1	–	< 100
CSc1ncc(Br)c(C(=O)Nc2ccc(CC(=O)Nc3cc(C(C)(C)C)on3)cc2)n1	–	< 100
CC(C)(C)c1cc(NC(=O)Cc2ccc(NC(=O)c3ccc4cnccc4n3)cc2)no1	–	< 100
Cn1cc(C(=O)Nc2ccc(CC(=O)Nc3cc(C(C)(C)C)on3)cc2)c2ccccc21	–	< 100
CC(C)(C)c1cc(NC(=O)Cc2ccc(NC(=O)c3cccc4cccnc34)cc2)no1	–	100 to 1000
CC(C)(C)c1cc(NC(=O)Cc2ccc(NC(=O)c3cnc4ccccc4c3)cc2)no1	–	< 100

Reference: patent US20050165074A1, “Amide derivatives as C-KIT modulators” (Ambit Biosciences Corporation, priority 2003, published 2005)
